Holding throughout (assay type): cell-based
For one experiment, the target named is T1, EGFR del (PC9) (Homo sapiens, UniProt P00533, DEL746-750).
T1 construct: detects endogenous levels of phospho-EGF Receptor (Tyr1068) protein; host or cells: PC9
Briefly: pEGFR Y1068 ELISA assay, PC9 cells. As to conditions: inhibition of phosphorylation of EGFR at Tyr1068; PC9 NSCLC cells; 2 hr compound incubation. For orientation: An ELISA detects its analyte on a solid surface through an enzyme-linked reagent.

Experiment [1] deals with T2, EGFR wildtype, endogenous (A549) (Homo sapiens, UniProt P00533).
T2 construct: A549 (EGFR wildtype, endogenous); host or cells: A549 (stimulated with EGF)
Briefly: pEGFR Y1068 ELISA assay, A549 cells. Particulars: inhibition of phosphorylation of EGFR at Tyr1068; A549 NSCLC cells; 2 hr compound incubation, then stimulated 10 min with EGF (40 ng/mL).

The target of experiment [2] is T3, EGFR L858R+T790M, endogenous (NCI-H1975) (Homo sapiens, UniProt P00533, L858R/T790M).
T3 construct: NCI-H1975 (EGFR L858R+T790M, endogenous); host or cells: NCI-H1975
Briefly: pEGFR Y1068 ELISA assay, NCI-H1975 cells. As to conditions: inhibition of phosphorylation of EGFR at Tyr1068; NCI-H1975 NSCLC cells; 2 hr compound incubation.

The target of the next experiment is T4, EGFR del/T790M (PC9-DRH) (Homo sapiens, UniProt P00533, DEL746-750/T790M).
T4 construct: detects endogenous levels of phospho-EGF Receptor (Tyr1068) protein; endogenous in cells; host or cells: PC9-DRH (dacomitinib-resistant derivative of PC9, generated in house)
Briefly: pEGFR Y1068 ELISA assay, PC9-DRH cells. As to conditions: inhibition of phosphorylation of EGFR at Tyr1068; PC9-DRH cells (dacomitinib resistant); 2 hr compound incubation.

In another experiment the target is T5, EGFR L858R (NCI-H3255) (Homo sapiens, UniProt P00533, L858R).
T5 construct: detects endogenous levels of phospho-EGF Receptor (Tyr1068) protein; host or cells: NCI-H3255
Briefly: pEGFR Y1068 ELISA assay, NCI-H3255 cells.

Setting [3] is: inhibition of phosphorylation of EGFR at Tyr1068, NCI-H3255 NSCLC cells, 2 hr compound incubation.

14 compounds from patent US9290496B2, “Purine derivatives” (PFIZER INC., priority 2013, dated 2016) can be followed below.

One may read the IC50 as the concentration that inhibits the measured activity by half. Low values mean higher potency, high ones lower potency.

Read-outs that look alike come from different tables or passages of the source.

T3 sequence (P00533 25-1210 T790M/L858R): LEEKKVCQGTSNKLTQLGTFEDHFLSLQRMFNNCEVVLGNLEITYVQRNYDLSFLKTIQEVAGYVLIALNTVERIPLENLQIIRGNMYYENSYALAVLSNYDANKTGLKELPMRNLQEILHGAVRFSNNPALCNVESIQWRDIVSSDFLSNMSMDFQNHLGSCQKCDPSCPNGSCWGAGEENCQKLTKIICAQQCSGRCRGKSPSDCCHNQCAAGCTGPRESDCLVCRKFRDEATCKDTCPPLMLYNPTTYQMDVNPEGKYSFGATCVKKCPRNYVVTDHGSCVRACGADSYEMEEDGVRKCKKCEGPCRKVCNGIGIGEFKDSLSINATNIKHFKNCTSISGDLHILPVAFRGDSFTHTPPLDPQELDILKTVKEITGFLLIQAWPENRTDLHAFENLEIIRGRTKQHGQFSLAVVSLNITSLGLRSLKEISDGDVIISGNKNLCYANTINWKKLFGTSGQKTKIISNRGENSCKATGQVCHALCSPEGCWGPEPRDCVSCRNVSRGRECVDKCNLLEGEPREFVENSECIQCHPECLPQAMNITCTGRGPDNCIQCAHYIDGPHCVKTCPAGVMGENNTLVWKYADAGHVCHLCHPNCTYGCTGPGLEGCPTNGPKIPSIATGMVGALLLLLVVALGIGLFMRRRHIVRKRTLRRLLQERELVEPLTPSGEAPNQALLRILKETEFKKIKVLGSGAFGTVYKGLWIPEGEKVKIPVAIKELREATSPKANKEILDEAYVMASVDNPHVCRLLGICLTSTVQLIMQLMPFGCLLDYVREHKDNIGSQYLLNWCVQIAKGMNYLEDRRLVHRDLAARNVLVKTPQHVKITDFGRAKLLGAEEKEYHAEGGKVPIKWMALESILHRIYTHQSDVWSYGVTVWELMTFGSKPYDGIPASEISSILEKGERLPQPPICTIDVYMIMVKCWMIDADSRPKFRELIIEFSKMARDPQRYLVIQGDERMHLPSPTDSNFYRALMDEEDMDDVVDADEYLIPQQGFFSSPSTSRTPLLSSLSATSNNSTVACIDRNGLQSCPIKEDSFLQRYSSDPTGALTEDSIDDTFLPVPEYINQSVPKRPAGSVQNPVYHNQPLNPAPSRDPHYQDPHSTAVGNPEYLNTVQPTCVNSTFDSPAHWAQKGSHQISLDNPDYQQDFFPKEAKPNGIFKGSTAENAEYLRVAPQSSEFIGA
T4 sequence (P00533 with tags, fused parts or gaps DEL746-750/T790M): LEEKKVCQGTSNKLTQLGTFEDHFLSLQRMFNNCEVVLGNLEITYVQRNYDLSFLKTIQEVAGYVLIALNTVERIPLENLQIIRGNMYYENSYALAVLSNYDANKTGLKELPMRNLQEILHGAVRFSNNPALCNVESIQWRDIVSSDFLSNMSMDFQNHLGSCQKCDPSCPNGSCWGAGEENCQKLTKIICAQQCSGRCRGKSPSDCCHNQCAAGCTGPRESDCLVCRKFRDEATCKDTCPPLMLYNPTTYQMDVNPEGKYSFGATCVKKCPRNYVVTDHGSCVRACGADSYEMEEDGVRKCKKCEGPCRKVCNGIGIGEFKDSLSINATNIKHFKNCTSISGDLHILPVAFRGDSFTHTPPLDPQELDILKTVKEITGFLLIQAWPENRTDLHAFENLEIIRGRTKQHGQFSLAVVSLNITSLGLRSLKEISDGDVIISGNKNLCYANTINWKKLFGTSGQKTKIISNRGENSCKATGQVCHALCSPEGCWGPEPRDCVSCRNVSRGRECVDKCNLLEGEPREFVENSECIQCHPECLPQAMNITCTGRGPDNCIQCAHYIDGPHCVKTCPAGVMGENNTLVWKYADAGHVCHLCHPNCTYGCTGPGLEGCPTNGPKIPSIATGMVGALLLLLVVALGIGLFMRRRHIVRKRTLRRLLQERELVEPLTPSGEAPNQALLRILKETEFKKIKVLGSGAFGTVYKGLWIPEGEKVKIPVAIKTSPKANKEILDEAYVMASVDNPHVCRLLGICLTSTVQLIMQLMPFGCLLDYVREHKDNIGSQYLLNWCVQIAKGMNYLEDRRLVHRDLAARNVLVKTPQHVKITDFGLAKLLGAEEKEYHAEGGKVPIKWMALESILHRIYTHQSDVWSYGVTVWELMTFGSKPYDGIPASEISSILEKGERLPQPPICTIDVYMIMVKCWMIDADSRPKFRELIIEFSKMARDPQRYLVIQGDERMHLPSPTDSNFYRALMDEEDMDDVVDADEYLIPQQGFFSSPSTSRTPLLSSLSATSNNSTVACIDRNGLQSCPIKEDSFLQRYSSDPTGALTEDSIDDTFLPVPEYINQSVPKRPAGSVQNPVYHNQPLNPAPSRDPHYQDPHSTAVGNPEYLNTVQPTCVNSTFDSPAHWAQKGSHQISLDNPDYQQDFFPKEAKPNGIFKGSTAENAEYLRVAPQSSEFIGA
T2 sequence (P00533 25-1210): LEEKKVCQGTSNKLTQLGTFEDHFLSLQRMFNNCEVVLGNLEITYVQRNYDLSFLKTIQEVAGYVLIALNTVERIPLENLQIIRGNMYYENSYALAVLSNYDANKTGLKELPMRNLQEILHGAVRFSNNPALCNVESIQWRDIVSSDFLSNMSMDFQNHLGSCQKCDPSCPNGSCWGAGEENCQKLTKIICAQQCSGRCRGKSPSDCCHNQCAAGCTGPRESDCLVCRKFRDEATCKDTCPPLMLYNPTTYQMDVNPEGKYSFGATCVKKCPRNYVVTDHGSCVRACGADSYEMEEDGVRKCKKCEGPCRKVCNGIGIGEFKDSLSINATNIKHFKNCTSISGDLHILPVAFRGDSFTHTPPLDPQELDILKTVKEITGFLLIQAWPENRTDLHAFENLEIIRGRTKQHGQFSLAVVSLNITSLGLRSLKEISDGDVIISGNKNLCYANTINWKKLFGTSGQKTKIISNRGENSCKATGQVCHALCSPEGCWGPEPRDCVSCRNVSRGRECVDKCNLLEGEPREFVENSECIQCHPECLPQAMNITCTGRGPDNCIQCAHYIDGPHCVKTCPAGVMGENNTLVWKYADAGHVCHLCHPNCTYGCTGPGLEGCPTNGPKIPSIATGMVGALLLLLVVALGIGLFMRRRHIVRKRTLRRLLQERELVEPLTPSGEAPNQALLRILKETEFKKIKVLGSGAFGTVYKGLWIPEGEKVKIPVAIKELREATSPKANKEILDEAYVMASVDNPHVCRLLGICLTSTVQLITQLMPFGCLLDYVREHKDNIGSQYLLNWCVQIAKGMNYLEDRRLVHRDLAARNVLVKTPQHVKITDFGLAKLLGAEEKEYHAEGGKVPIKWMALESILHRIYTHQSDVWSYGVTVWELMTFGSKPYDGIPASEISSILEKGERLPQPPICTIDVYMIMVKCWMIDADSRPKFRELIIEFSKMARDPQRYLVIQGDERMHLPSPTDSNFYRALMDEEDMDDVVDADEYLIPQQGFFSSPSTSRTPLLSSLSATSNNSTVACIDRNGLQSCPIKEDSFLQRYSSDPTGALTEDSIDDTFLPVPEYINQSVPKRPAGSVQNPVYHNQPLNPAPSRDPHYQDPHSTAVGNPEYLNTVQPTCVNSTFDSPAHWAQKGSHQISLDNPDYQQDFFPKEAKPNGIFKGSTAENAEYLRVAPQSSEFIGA
T1 sequence (P00533 with tags, fused parts or gaps DEL746-750): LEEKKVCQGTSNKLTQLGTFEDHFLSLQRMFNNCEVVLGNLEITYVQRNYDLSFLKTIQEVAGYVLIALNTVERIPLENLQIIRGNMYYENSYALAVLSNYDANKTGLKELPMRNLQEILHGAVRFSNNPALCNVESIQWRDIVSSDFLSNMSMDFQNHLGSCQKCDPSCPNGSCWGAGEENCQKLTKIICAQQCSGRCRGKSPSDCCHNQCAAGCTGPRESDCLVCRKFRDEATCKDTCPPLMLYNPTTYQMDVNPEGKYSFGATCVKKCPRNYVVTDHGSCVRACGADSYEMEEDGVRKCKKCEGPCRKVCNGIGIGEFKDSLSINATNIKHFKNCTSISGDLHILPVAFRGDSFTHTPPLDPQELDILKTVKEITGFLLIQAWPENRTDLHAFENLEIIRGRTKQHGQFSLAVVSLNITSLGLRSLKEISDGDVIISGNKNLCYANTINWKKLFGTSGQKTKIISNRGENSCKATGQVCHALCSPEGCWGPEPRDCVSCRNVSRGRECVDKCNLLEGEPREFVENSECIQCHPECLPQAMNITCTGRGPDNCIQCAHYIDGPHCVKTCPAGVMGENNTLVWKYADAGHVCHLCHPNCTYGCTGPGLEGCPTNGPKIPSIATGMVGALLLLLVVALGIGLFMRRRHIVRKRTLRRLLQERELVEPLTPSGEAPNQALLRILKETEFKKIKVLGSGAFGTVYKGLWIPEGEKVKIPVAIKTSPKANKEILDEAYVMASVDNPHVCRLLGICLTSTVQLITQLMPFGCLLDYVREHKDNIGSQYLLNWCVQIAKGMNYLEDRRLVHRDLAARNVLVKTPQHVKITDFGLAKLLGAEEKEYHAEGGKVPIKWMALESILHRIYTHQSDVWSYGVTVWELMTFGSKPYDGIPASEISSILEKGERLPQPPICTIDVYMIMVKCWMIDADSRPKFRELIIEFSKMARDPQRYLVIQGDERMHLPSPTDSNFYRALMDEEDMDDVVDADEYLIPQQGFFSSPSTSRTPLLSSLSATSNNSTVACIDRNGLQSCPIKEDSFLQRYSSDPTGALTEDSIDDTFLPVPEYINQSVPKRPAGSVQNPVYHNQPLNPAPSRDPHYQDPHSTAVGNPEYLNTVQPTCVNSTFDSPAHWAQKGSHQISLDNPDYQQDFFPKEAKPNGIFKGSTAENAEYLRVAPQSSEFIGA

Consider `C=CC(=O)N(C)[C@H]1C[C@H](Oc2nc(Nc3ccc(N4CCN(C)CC4)cc3)c3ncn(C(C)C)c3n2)C1` [Example 29, N-((trans)-3-((9-isopropyl-6-((4-(4-methylpiperazin-1-yl)phenyl)amino)-9H-purin-2-yl)oxy)cyclobutyl)-N-methylacrylamide], for which the IC50 at EGFR del (PC9) turned out to be 40 nM; in experiment [1] it was 698 nM; in experiment [2], 35 nM; against EGFR del/T790M (PC9-DRH) it was 61 nM; at EGFR L858R (NCI-H3255) it was 35 nM.

For `C=CC(=O)N[C@@H]1CN(c2nc(Nc3cn(CC)nc3OC)c3ncn(C)c3n2)C[C@H]1F` [Example 88, N-((3R,4R)-1-(6-((1-ethyl-3-methoxy-1H-pyrazol-4-yl)amino)-9-methyl-9H-purin-2-yl)-4-fluoropyrrolidin-3-yl)acrylamide], the half-maximal inhibitory concentration (IC50) came out at 6 nM on EGFR del (PC9); 194 nM in experiment [1]; 6 nM in experiment [2]; 1 nM on EGFR del/T790M (PC9-DRH); 2 nM against EGFR L858R (NCI-H3255) (setting [3]).

For the compound `C=CC(=O)N[C@@H]1CN(c2nc(Nc3cn(C4CCN(C)C4)nc3OC)c3ncn(C)c3n2)C[C@H]1F` (stereo partly drawn) [Example 79, N-((3R,4R)-4-fluoro-1-(6-((3-methoxy-1-(1-methylpyrrolidin-3-yl)-1H-pyrazol-4-yl)amino)-9-methyl-9H-purin-2-yl)pyrrolidin-3-yl)acrylamide], the IC50 amounted to 3 nM on EGFR del (PC9); 100 nM in experiment [1]; 6 nM in experiment [2]; 1 nM against EGFR del/T790M (PC9-DRH); 3 nM on EGFR L858R (NCI-H3255).

`C=CC(=O)NC1(C)CN(c2nc(Nc3cnn(C)c3)c3ncn(C(C)C)c3n2)C1` [Example 13, N-(1-(9-isopropyl-6((1-methyl-1H-pyrazol-4-yl)amino)-9H-purin-2-yl)-3-methylazetidin-3-yl)acrylamide]: the IC50 against EGFR del (PC9) was determined as 40 nM; in experiment [1] it was 2440 nM; in experiment [2] it was 40 nM; against EGFR del/T790M (PC9-DRH), 25 nM; against EGFR L858R (NCI-H3255), 80 nM.

For `C=CC(=O)N[C@@H]1CN(c2nc(Nc3cn(C4CCN(C)C4)nc3C)c3ncn(C(C)C)c3n2)C[C@H]1F` (stereo partly drawn) [Example 55, N-((3R,4R)-4-fluoro-1-(9-isopropyl-6-((3-methyl-1-(1-methylpyrrolidin-3-yl)-1H -pyrazol-4-yl)amino)-9H-purin-2-yl)pyrrolidin-3-yl)acrylamide], the IC50 on EGFR del (PC9) came to 3 nM; in experiment [1], 273 nM; in experiment [2], 9 nM; at EGFR del/T790M (PC9-DRH), 3 nM; on EGFR L858R (NCI-H3255), 2 nM.

As for `C=CC(=O)N[C@@H]1CN(c2nc(Nc3cnn(C)c3)c3ncn(C(C)(C)C)c3n2)CC1F` (stereo in doubt) [Example 49, N-((3R,4S)-1-(9-(tert-butyl)-6-((1-methyl-1H-pyrazol-4-yl)amino)-9H-purin-2-yl)-4-fluoropyrrolidin-3-yl)acrylamide], the half-maximal inhibitory concentration (IC50) was 8 nM against EGFR del (PC9); 787 nM in experiment [1]; 21 nM in experiment [2]; 2 nM at EGFR del/T790M (PC9-DRH); 3 nM on EGFR L858R (NCI-H3255).

In the case of `C=CC(=O)N[C@H]1CCN(c2nc(Nc3cnn(C)c3)c3ncn(C(C)C)c3n2)C1` [Example 4, (S)-N-(1-(9-isopropyl-6-((1-methyl-1H-pyrazol-4-yl)amino)-9H-purin-2-yl)pyrrolidin-3-yl)acrylamide], the IC50 amounted to 52 nM at EGFR del (PC9), 652 nM in experiment [1], 52 nM in experiment [2] and 59 nM on EGFR L858R (NCI-H3255).

With `C=CC(=O)N[C@H]1CCN(c2nc(Nc3ccc(N4CCN(C)CC4)cc3)c3ncn(C(C)C)c3n2)C1` [Example 1, (S)-N-(1-(9-isopropyl-6-((4-(4-methylpiperazin-1-yl)phenyl)amino)-9H-purin-2-yl)pyrrolidin-3-yl)acrylamide], the IC50 against EGFR del (PC9) was 22 nM; in experiment [1] it was 277 nM; in experiment [2], 19 nM; on EGFR del/T790M (PC9-DRH), 18 nM; against EGFR L858R (NCI-H3255), 19 nM.

`C=CC(=O)N1C[C@@H]2CN(c3nc(Nc4ccc(N5CCN(C)CC5)cc4)c4ncn(C(C)C)c4n3)C[C@@H]2C1` [Example 21, 1-((cis)-5-(9-isopropyl-6-((4-(4-methylpiperazin-1-yl)phenyl)amino)-9H-purin-2-yl)hexahydropyrrolo[3,4-c]pyrrol-2(1H)-yl)prop-2-en-1-one]: the IC50 stood at 8 nM against EGFR del (PC9); 181 nM in experiment [1]; 14 nM in experiment [2]; 18 nM against EGFR del/T790M (PC9-DRH); 8 nM against EGFR L858R (NCI-H3255) (setting [3]).

In the case of `C=CC(=O)N[C@@H]1CN(c2nc(Nc3cn(C4CCN(C)C4)nc3C)c3ncn(C)c3n2)C[C@H]1F` (stereo partly drawn) [Example 81, N-((3R,4R)-4-fluoro-1-(9-methyl-6-((3-methyl-1-(1-methylpyrrolidin-3-yl)-1H -pyrazol-4-yl)amino)-9H-purin-2-yl)pyrrolidin-3-yl)acrylamide], the IC50 at EGFR del (PC9) was determined as 21 nM; in experiment [1], 575 nM; in experiment [2], 19 nM; against EGFR del/T790M (PC9-DRH) it was 8 nM; against EGFR L858R (NCI-H3255), 15 nM.

As for `C=CC(=O)N[C@@H]1CN(c2nc(Nc3cn(CC(C)O)nc3OC)c3ncn(C(C)C)c3n2)C[C@H]1F` (stereo partly drawn) [Example 84, N-((3R,4R)-4-fluoro-1-(6-((1-(2-hydroxypropyl)-3-methoxy-1H-pyrazol-4-yl)amino)-9-isopropyl-9H-purin-2-yl)pyrrolidin-3-yl)acrylamide], the IC50 came to 45 nM against EGFR del (PC9); 1200 nM in experiment [1]; 15 nM in experiment [2]; 3 nM against EGFR del/T790M (PC9-DRH); 9 nM at EGFR L858R (NCI-H3255).

Regarding `C=CC(=O)N[C@@H]1CN(c2nc(Nc3cnn(C)c3)c3ncn(C(C)C)c3n2)C[C@@H]1OC` (single isomer, unassigned) [Example 50, N-((cis*)-1-(9-isopropyl-6((1-methyl-1H-pyrazol-4-yl)amino)-9H-purin-2-yl)-4-methoxypyrrolidin-3-yl)acrylamide], the IC50 against EGFR del (PC9) worked out at 8 nM; in experiment [1], 587 nM; in experiment [2], 26 nM; against EGFR del/T790M (PC9-DRH) it was 34 nM; against EGFR L858R (NCI-H3255) it was 3 nM.

Turning to `C=CC(=O)N[C@H]1CCN(c2nc(Nc3cnn(C4CCN(C)CC4)c3)c3ncn(C(C)C)c3n2)C1` [Example 41, (S)-N-(1-(9-isopropyl-6-((1-(1-methylpiperidin-4-yl)-1H-pyrazol-4-yl)amino)-9H -purin-2-yl)pyrrolidin-3-yl)acrylamide], the IC50 against EGFR del (PC9) turned out to be 38 nM; in experiment [1] it was 3040 nM; in experiment [2], 64 nM; against EGFR del/T790M (PC9-DRH), 3 nM; on EGFR L858R (NCI-H3255) it was 9 nM.

`C=CC(=O)N[C@@H]1CN(c2nc(Nc3cnn([C@@H]4CCN(C)C4)c3C)c3ncn(C(C)C)c3n2)C[C@H]1F` [Example 85, N-((3R,4R)-4-fluoro-1-(9-isopropyl-6-((5-methyl-1-((R)-1-methylpyrrolidin-3-yl) -1H-pyrazol-4-yl)amino)-9H-purin-2-yl)pyrrolidin-3-yl)acrylamide]: the half-inhibitory concentration (IC50) is 104 nM against EGFR del (PC9); 647 nM in experiment [1]; 17 nM in experiment [2]; 15 nM on EGFR del/T790M (PC9-DRH); 34 nM against EGFR L858R (NCI-H3255).
